Like-named read-outs stand apart in the source and are kept apart here.
Tests used:
[1] = tested on: normal skin fibroblasts (HFF-1); set-up: method as in PMID 29271659; settings: toxicity to normal cells; read-out: IC50 normal cells of analog without linker; cited from earlier work
[2] = tested on: normal skin fibroblasts (HFF-1); assay: Cytotoxicity MTT assay, normal skin fibroblasts; type: cell-based, human; settings: Homo sapiens, HFF-1, 72 h, 72 h incubation, mean ± SD
In short: (§1)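 3000 cells/well (tumour) or 5000 (fibroblasts), DMEM/MEM + 10% FBS, 37 °C. Cpd 0.01–100 µM, 72 h. MTT; IC50 via linear regression; n = 4 × 2 expts.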

[3] = tested on: breast adenocarcinoma (MCF7) cells; assay: Antiproliferative MTT assay, MCF-7; type: cell-based, human; settings: Homo sapiens, MCF7; 72 h incubation, MTT; mean ± SD
In short: as §1

[4] = tested on: colorectal carcinoma (HT-29) cells; assay: Antiproliferative MTT assay, HT-29; type: cell-based, human; settings: for IC50: Homo sapiens, HT-29, 72 h, 72 h incubation, MTT, mean ± SD
In short: as §1

[5] = tested on: hepatocellular carcinoma (HepG2) cells; assay: Antiproliferative MTT assay, HepG2; type: cell-based, human; settings: for IC50: Homo sapiens, HepG2, 72 h, 72 h incubation, MTT, mean ± SD
In short: as §1

[6] = tested on: pancreatic ductal adenocarcinoma (CFPAC-1) cells; assay: Antiproliferative MTT assay, CFPAC-1; type: cell-based, human; settings: Homo sapiens, CFPAC-1, 72 h, 72 h incubation, MTT; mean ± SD
In short: as §1

[7] = tested on: MCF-7, CFPAC-1, HT-29, HepG2 tumor cell lines and HFF-1 fibroblasts; assay: Antiproliferative activity, whole cell line panel; type: cell-based, human; settings: tested cell lines
Method: The human ATCC tumor cell lines breast adenocarcinoma (MCF7), colorectal carcinoma (HT-29), pancreatic ductal adenocarcinoma (CFPAC-1), hepatocellular carcinoma (HepG2), and normal skin fibroblasts (HFF) derived from ATCC (American Type Culture Collection) were cultured in Dulbecco’s Modified Eagle Medium (DMEM) or Minimum Essential Medium (MEM) supplemented with 10% fetal bovine serum (FBS), 2 mM L-glutamine, 100 U/mL penicillin, and 100 µg/mL streptomycin (Lonza, Basel, Switzerland) in a humidified atmosphere with 5% CO2 at 37 °C. For the experiment, carcinoma cell lines and normal human cell lines were seeded in 96-well microtiter plates at a density of 3000 cells per well and 5000 cells per well, respectively, depending on the doubling time of the specific cell line. The test substances were then added at fivefold, tenfold dilutions (0.01 to 100 µM), freshly prepared in the growth medium on the day of testing, and incubated for a further 72 h. After 72 h of incubation, the growth rate of the cells was determined using the MTT assay according to the manufacturer’s guidelines. […] The IC50 values were calculated from the dose–response curves using linear regression analysis. The experiment was performed in tetraplicates in two individual experiments.
Newly synthesized compounds were evaluated for their cytotoxic activity in vitro against four human cancer cell lines, including human breast adenocarcinoma (MCF-7), ductal pancreatic adenocarcinoma (CFPAC-1), colorectal carcinoma (HT-29), and hepatocellular carcinoma (HepG2), as well as on non-cancerous skin fibroblasts (HFF-1), to check for non-specific toxicity. Furthermore, 5-Fluorouracil (5-FU) was used as a reference drug. The results are expressed as 50% inhibitory concentration (IC50) values and are listed in Table 2, Table 3, Table 4 and Table 5.

[8] = Hydrolytic stability in aqueous buffer (UV/Vis); type: physicochemical; settings: phosphate buffer/DMSO 99:1, pH 7.4, 1 × 10⁻⁴ mol dm⁻³, UV/Vis spectra over 24 h
From the text: Solvents and chemicals, including starting purines and purine bioisosters 1–5, as well as para-substituted 2-phenyloxiranes 11–15 and phenacyl bromide 21–25, were purchased from Sigma-Aldrich (St. Louis, MO, USA), Alfa Aesar (Haverhill, MA, USA), and Fisher Scientific International (Pittsburgh, PA, USA). The progress of all reactions was monitored by thin layer chromatography on pre-coated Merck (Darmstadt, Germany) silica gel plates 60F254. The synthesized compounds were purified via column chromatography using Fluka (Buchs, Switzerland) silica gel (0.063−0.2 mm) and the appropriate solvent. All NMR spectra were recorded using a Bruker 300, 400, and 600 MHz NMR spectrometer (Bruker Biospin, Rheinstetten, Germany) in deuterated DMSO solutions, with TMS as the internal standard. The melting points of all newly synthesized compounds were determined using a Koffler (Reichert, Vienna) hot stage microscope. The ^1H (δ/ppm) and ^13C NMR (δ/ppm) spectra of compounds 26a,b–49a,b can be found in the Supporting Information (Figures S1–S48). The purity of all newly synthesized compounds was determined by elemental analysis and the elemental analysis results are within 0.5% of the theoretical values. The UV/Vis absorption spectra of compounds 40a, 45a, and 49b were measured at a concentration of 1 × 10⁻⁴ mol dm⁻³ in phosphate buffer and DMSO (99:1, v/v) at pH 7.4 using a Varian Cary 50 spectrophotometer in double-beam mode at 25 °C.
Selected 6-chloropurine (40a), 4-chloropyrrolo[2,3-d]pyrimidine (45a), and 4-chloroimidazo[4,5-c]pyridine (49b) with significant antiproliferative activity were examined for hydrolytic stability in an aqueous buffer solution.
2. UV/Vis absorption spectra of selected compounds
Figure S49. UV/Vis absorption spectra of compounds 40a (a), 45a (b), and 49b (c) recorded in phosphate buffer with 1% DMSO (99:1, v/v) at pH 7.4 (c = 1 × 10⁻⁴ mol dm⁻³). Spectra were measured immediately after sample preparation and after 24 hours to evaluate spectral stability over time.
(1 picture or pasted object on this page, not shown here)

[9] = tested on: MDCKII-MDR1 cells (P-glycoprotein); assay: MDCKII-MDR1 permeability assay; type: in vitro ADME, canine cells with over-expressed human MDR1 gene; settings: permeability class
Method: (§2) MDCKII-hMDR1 cells were obtained from Solvo Biotechnology, Hungary. DMEM, fetal bovine serum, Glutamax-100, Antibiotic/Antimycotic, DMSO, Dulbecco’s phosphate-buffered saline, and MEM Non-essential amino acids were purchased from Sigma (St. Louis, MO, USA). Bi-directional permeability and P-glycoprotein substrate assessments were carried out in Madin-Darby canine epithelial cells with the over-expressed human MDR1 gene (MDCKII-MDR1), coding for P-glycoprotein. Experimental procedures, as well as cell culture conditions, were the same as previously described. Briefly, compounds (10 µM, 1% DMSO v/v) in duplicate were incubated at 37 °C for 60 min with cell monolayer on 24-well Millicell inserts (Millipore, Burlington, MA, USA) with and without the P-glycoprotein inhibitor Elacridar (2 µM, International Laboratory, San Francisco, CA, USA). The inhibition of P-glycoprotein was verified by amprenavir (Moravek Biochemicals Inc, Brea, CA, USA) and monolayer integrity using Lucifer yellow (Sigma, St. Louis, MO, USA). LC-MS/MS measured compound concentrations and Lucifer yellow was measured on an Infinite F500 (Tecan, Männedorf, CH, Switzerland) using excitation of 485 nm and emission of 530 nm.
(§3) All samples were quantified using tandem mass spectrometry coupled to liquid chromatography. Samples were analyzed on a Sciex API4000 Triple Quadrupole Mass Spectrometer (Sciex, Division of MDS Inc., Toronto, Canada) coupled to a Shimadzu Nexera X2 UHPLC frontend (Kyoto, Japan). Samples were injected onto a UHPLC column (HALO2 C18, 2.1 × 20 mm, 2 µm or Luna Omega 1.6 µm Polar C18 100A, 30 × 2.1 mm) and eluted with a gradient at 50 °C. The mobile phase was composed of acetonitrile/water mixture (9/1, with 0.1% formic acid) and 0.1% formic acid in deionized water. The flow rate was 0.7 mL/min under gradient conditions, leading to a total run time of 1.5–2 min. A positive ion mode with turbo spray, an ion source temperature of 550 °C, and a dwell time of 150 ms were utilized for mass spectrometric detection. Quantitation was performed using multiple reaction monitoring (MRM) at the specific transitions for each compound.

[10] = tested on: P-glycoprotein (human MDR1); assay: MDCKII-MDR1 permeability assay; type: in vitro ADME, canine cells with over-expressed human MDR1 gene; settings: dog, MDCK-MDR1
Method: as §2, §3

FC(F)(F)c1ccc(-n2cc(Cn3cnc4c(Cl)ncnc43)nn2)cc1
IC50 [1]: 0.75 µM

OCC(c1ccccc1)n1cc(Cn2cnc3ccccc32)nn1 (stereo not drawn) [Compound 31a, 1-((1-(2-Hydroxy-1-phenylethyl)-1H-1,2,3-triazol-4-yl)methyl)-1H-benzimidazole]
IC50 [2]: > 100 µM | IC50 [3]: > 100 µM | IC50 [4]: > 100 µM | IC50 [5]: > 100 µM | IC50 [6]: > 100 µM | antiproliferative activity (in words) [7]: deprived of any activity

OCC(c1ccc(C(F)(F)F)cc1)n1cc(Cn2cnc3c(Cl)ncnc32)nn1 (stereo not drawn) [Compound 40a, 6-Chloro-9-((1-(2-hydroxy-1-(4-(trifluoromethyl)phenyl)ethyl)-1H-1,2,3-triazol-4-yl)methyl)-9H-purine]
hydrolytic stability [8]: hydrolytically stable | IC50 [2]: 18 ± 0.6 µM | IC50 [3]: 19 ± 4.3 µM | IC50 [4]: 0.69 ± 0.01 µM | SI (HT-29) ([4]; SI = [IC50 HFF]/[IC50 HT-29]): 26.1 | SI (HepG2) ([5]; SI = [IC50 HFF]/[IC50 HepG2]): 28.1 | antiproliferative activity (in words) [7]: submicromolar antiproliferative activity | Permeability [9]: MODERATE | Papp A→B at 60 min, 10 µM ([10]; 10 µM, 60 min, 37 °C): 2.1 ×10⁻⁶ cm/s | Papp B→A at 60 min, 10 µM ([10]; 10 µM, 60 min, 37 °C): 60.6 ×10⁻⁶ cm/s | efflux ratio at 60 min, 10 µM ([10]; <2 no efflux, >2 active efflux): 29.5

OCC(c1ccccc1)n1cc(Cn2ccc3ccccc32)nn1 (stereo not drawn) [Compound 26a, 1-((1-(2-Hydroxy-1-phenylethyl)-1H-1,2,3-triazol-4-yl)methyl)-1H-indole]
IC50 [2]: > 100 µM | IC50 [3]: > 100 µM | IC50 [4]: > 100 µM | IC50 [5]: > 100 µM | IC50 [6]: > 100 µM | antiproliferative activity (in words) [7]: deprived of any activity

OC(Cn1cc(Cn2cnc3c(Cl)nccc32)nn1)c1ccccc1 (stereo not drawn) [Compound 46b, 4-Chloro-1-((1-(2-hydroxy-2-phenylethyl)-1H-1,2,3-triazol-4-yl)methyl)-1H-imidazo[4,5-c]pyridine]
IC50 [2]: > 100 µM | IC50 [3]: > 100 µM | IC50 [4]: > 100 µM | IC50 [5]: > 100 µM | IC50 [6]: > 100 µM | antiproliferative activity (in words) [7]: deprived of any activity
